Columns and labels:
[1] = Cytotoxicity against human MT4 cells assessed as cell growth inhibition incubated for 5 days by MTT assay; type: toxicity, cell-based; conditions: time 5 day
[2] = tested on: Human immunodeficiency virus 1; experiment: Antiviral activity against HIV-1 IIIB infected in human MT4 cells assessed as reduction in virus induced cytopathic effect incubated for 5 days by MTT assay; type: functional, organism-based; conditions: Human immunodeficiency virus 1, IIIB, MT4, 120 h
[3] = tested on: Human immunodeficiency virus 1; experiment: Antiviral activity against HIV-1 RES056 infected in human MT4 cells assessed as reduction in virus induced cytopathic effect incubated for 5 days by MTT assay; type: functional, organism-based; conditions: Human immunodeficiency virus 1, RES056, MT4, 120 h
[4] = Selectivity index, ratio of CC50 for cytotoxicity against human MT4 cells assessed as reduction in cell viability to EC50 for antiviral activity against HIV-1 IIIB infected in human MT4 cells assessed as reduction in virus induced cytopathic effect; type: toxicity, cell-based; conditions: read-out: Ratio CC50/EC50
[5] = tested on: Human immunodeficiency virus 1; experiment: Antiviral activity against NNRTI-resistant HIV-1 harboring L100I mutant infected in human MT4 cells assessed as virus-induced cytopathicity incubated for 5 days by MTT assay; type: functional, organism-based; conditions: Human immunodeficiency virus 1, MT4, 120 h
[6] = tested on: Human immunodeficiency virus 1; experiment: Antiviral activity against NNRTI-resistant HIV-1 harboring K103N mutant infected in human MT4 cells assessed as virus-induced cytopathicity incubated for 5 days by MTT assay; type: functional, organism-based; conditions: Human immunodeficiency virus 1, MT4, 120 h
[7] = tested on: Human immunodeficiency virus 1; experiment: Antiviral activity against NNRTI-resistant HIV-1 harboring Y181C mutant infected in human MT4 cells assessed as virus-induced cytopathicity incubated for 5 days by MTT assay; type: functional, organism-based; conditions: Human immunodeficiency virus 1, MT4, 120 h
[8] = tested on: Human immunodeficiency virus 1; experiment: Antiviral activity against NNRTI-resistant HIV-1 harboring Y188L mutant infected in human MT4 cells assessed as virus-induced cytopathicity incubated for 5 days by MTT assay; type: functional, organism-based; conditions: Human immunodeficiency virus 1, MT4, 120 h
[9] = tested on: Human immunodeficiency virus 1; experiment: Antiviral activity against NNRTI-resistant HIV-1 harboring E138K mutant infected in human MT4 cells assessed as virus-induced cytopathicity incubated for 5 days by MTT assay; type: functional, organism-based; conditions: Human immunodeficiency virus 1, MT4, 120 h
[10] = tested on: Human immunodeficiency virus 1; experiment: Antiviral activity against NNRTI-resistant HIV-1 harboring F227L/V106A double mutant infected in human MT4 cells assessed as virus-induced cytopathicity incubated for 5 days by MTT assay; type: functional, organism-based; conditions: Human immunodeficiency virus 1, MT4, 120 h
[11] = Selectivity index, ratio of CC50 for cytotoxicity against human MT4 cells assessed as reduction in cell viability to EC50 for antiviral activity against NNRTI-resistant HIV-1 harboring L100I mutant infected in human MT4 cells; type: toxicity, cell-based; conditions: read-out: Ratio CC50/EC50
[12] = Selectivity index, ratio of CC50 for cytotoxicity against human MT4 cells assessed as reduction in cell viability to EC50 for antiviral activity against NNRTI-resistant HIV-1 harboring K103N mutant infected in human MT4 cells; type: toxicity, cell-based; conditions: read-out: Ratio CC50/EC50
[13] = Selectivity index, ratio of CC50 for cytotoxicity against human MT4 cells assessed as reduction in cell viability to EC50 for antiviral activity against NNRTI-resistant HIV-1 harboring Y181C mutant infected in human MT4 cells; type: toxicity, cell-based; conditions: read-out: Ratio CC50/EC50
[14] = Selectivity index, ratio of CC50 for cytotoxicity against human MT4 cells assessed as reduction in cell viability to EC50 for antiviral activity against NNRTI-resistant HIV-1 harboring Y188L mutant infected in human MT4 cells; type: toxicity, cell-based; conditions: read-out: Ratio CC50/EC50
[15] = Selectivity index, ratio of CC50 for cytotoxicity against human MT4 cells assessed as reduction in cell viability to EC50 for antiviral activity against NNRTI-resistant HIV-1 harboring E138K mutant infected in human MT4 cells; type: toxicity, cell-based; conditions: read-out: Ratio CC50/EC50
[16] = Selectivity index, ratio of CC50 for cytotoxicity against human MT4 cells assessed as reduction in cell viability to EC50 for antiviral activity against NNRTI-resistant HIV-1 harboring F227L/V106A double mutant infected in human MT4 cells; type: toxicity, cell-based; conditions: read-out: Ratio CC50/EC50
[17] = Selectivity index, ratio of CC50 for cytotoxicity against human MT4 cells assessed as reduction in cell viability to EC50 for antiviral activity against HIV-1 RES056 infected in human MT4 cells assessed as reduction in virus induced cytopathic effect; type: toxicity, cell-based; conditions: read-out: Ratio CC50/EC50
[18] = (§1) Fold resistance, ratio of EC50 for antiviral activity against NNRTI-resistant HIV-1 harboring L100I mutant infected in human MT4 cells assessed as virus-induced cytopathicity to EC50 for antiviral activity against HIV-1 IIIB infected in human MT4 cells assessed as reduction in virus induced cytopathic effect; type: functional
[19] = as §1, with “K103N” for “L100I”; type: functional
[20] = as §1, with “Y181C” for “L100I”; type: functional
[21] = as §1, with “Y188L” for “L100I”; type: functional
[22] = as §1, with “E138K” for “L100I”; type: functional
[23] = as §1, with “F227L/V106A double” for “L100I”; type: functional
[24] = as §1, with “F227L/V106A double” for “L100I”, “RES056” for “IIIB”; type: functional
[25] = target: Human immunodeficiency virus type 1 reverse transcriptase (Human immunodeficiency virus 1, UniProt Q72547); experiment: Inhibition of wild type HIV-1 reverse transcriptase assessed as reduction of biotin-dUTP incorporation into […] using ABTS as substrate incubated for 1 hrs by ELISA analysis

Compound	CC50 at 120 h [1] [nM]	EC50 [2] [nM]	EC50 [3] [nM]	selectivity ratio [4]	EC50 [5] [nM]	EC50 [6] [nM]	EC50 [7] [nM]	EC50 [8] [nM]	EC50 [9] [nM]	EC50 [10] [nM]	selectivity ratio [11]	selectivity ratio [12]	selectivity ratio [13]	selectivity ratio [14]	selectivity ratio [15]	selectivity ratio [16]	selectivity ratio [17]	Ratio EC50 [18]	Ratio EC50 [19]	Ratio EC50 [20]	other results
O=C1Nc2ccc(Cl)cc2[C@@](C#CC2CC2)(C(F)(F)F)O1 [EFAVIRENZ]	> 6350	–	–	–	–	–	–	–	–	–	–	–	–	–	–	–	–	–	–	–	–
Cc1cc(C#N)cc(C)c1Oc1nc(NC2CCN(Cc3ccc(S(N)(=O)=O)cc3)CC2)ncc1C(N)=O	198000	46	6120	4300	209	62	295	234	291	439	946	3180	671	847	680	451	32	4.5	1.3	6.4	Ratio EC50 [21]: 5.1; Ratio EC50 [22]: 6.3; Ratio EC50 [23]: 9.5; Ratio EC50 [24]: 132.9; IC50 [25]: 163 nM
Cc1cc(C#N)cc(C)c1Oc1nc(NC2CCN(Cc3ccc(S(C)(=O)=O)cc3)CC2)ncc1C(N)=O	> 234000	6	3450	> 41100	11	5	34	69	149	327	> 221	> 4460	> 6790	> 3400	> 1560	> 716	> 68	1.9	0.9	6	Ratio EC50 [21]: 12.1; Ratio EC50 [22]: 26.2; Ratio EC50 [23]: 57.4; Ratio EC50 [24]: 605.5; IC50 [25]: 122 nM
Cc1cc(C#N)cc(C)c1Oc1nc(NC2CCN(c3ccc(NS(N)(=O)=O)cc3)CC2)ncc1C(N)=O	176000	33	152000	5370	370	37	176	118	120	584	474	4730	997	1480	1470	301	1	11.3	1.1	5.4	Ratio EC50 [21]: 3.6; Ratio EC50 [22]: 3.7; Ratio EC50 [23]: 17.9; Ratio EC50 [24]: 4648.8; IC50 [25]: 941 nM
Cc1cc(C#N)cc(C)c1Oc1nc(NC2CCN(c3ccc(NS(=O)(=O)C4CC4)cc3)CC2)ncc1C(N)=O	208000	8	42	27200	65	9	45	35	734	34	3190	23400	4570	6000	283	6070	4920	8.5	1.2	6	Ratio EC50 [21]: 4.5; Ratio EC50 [22]: 96.2; Ratio EC50 [23]: 4.5; Ratio EC50 [24]: 5.5; IC50 [25]: 38 nM
Cc1cc(C#N)cc(C)c1Oc1nc(NC2CCN(Cc3ccc(B(O)O)cc3)CC2)ncc1C(N)=O	> 250000	42	6630	> 5990	133	45	159	209	165	1090	> 187	> 5550	> 1570	> 1190	> 1520	> 229	> 38	3.2	1.1	3.8	Ratio EC50 [21]: 5; Ratio EC50 [22]: 4; Ratio EC50 [23]: 26.2; Ratio EC50 [24]: 159.1; IC50 [25]: 1040 nM
Cc1cc(C#N)cc(C)c1Oc1nc(Nc2ccc(C#N)cc2)ncc1C(N)=O	32200	11	8960	2820	168	50	395	193	70	2550	192	650	82	167	459	13	4	14.7	4.3	34.6	Ratio EC50 [21]: 16.9; Ratio EC50 [22]: 6.2; Ratio EC50 [23]: 223.3; Ratio EC50 [24]: 785.5; IC50 [25]: 196 nM
Cc1cc(C#N)cc(C)c1Oc1nc(NC2CCN(c3cccc(C#N)c3)CC2)ncc1C(N)=O	111000	276	48100	402	–	–	–	–	–	–	–	–	–	–	–	–	–	–	–	–	–
Cc1cc(C#N)cc(C)c1Oc1nc(Nc2ccc(C#N)nc2)ncc1C(N)=O	27900	128	> 27900	218	–	–	–	–	–	–	–	–	–	–	–	–	–	–	–	–	–
Cc1cc(C#N)cc(C)c1Oc1nc(NC2CCN(c3cccc(C(N)=O)c3)CC2)ncc1C(N)=O	> 257000	43900	> 257000	> 6	–	–	–	–	–	–	–	–	–	–	–	–	–	–	–	–	–
Cc1cc(C#N)cc(C)c1Oc1nc(Nc2ccc(CN3CCNCC3)cc2)ncc1C(N)=O	> 273000	13400	> 273000	> 20	–	–	–	–	–	–	–	–	–	–	–	–	–	–	–	–	–
Cc1cc(C#N)cc(C)c1Oc1nc(Nc2ccc(CN3CCN(S(C)(=O)=O)CC3)cc2)ncc1C(N)=O	> 233000	1770	> 233000	> 132	–	–	–	–	–	–	–	–	–	–	–	–	–	–	–	–	–
Cc1cc(C#N)cc(C)c1Oc1nc(Nc2ccc(C#N)cc2)nc(N)c1Br [ETRAVIRINE]	> 4600	–	61	–	–	–	–	–	10	–	–	–	–	–	–	–	–	–	–	–	–
Cc1cc(C#N)cc(C)c1Oc1nc(Nc2ccc(CN3CCN(S(N)(=O)=O)CC3)cc2)ncc1C(N)=O	173000	1550	> 173000	112	–	–	–	–	–	–	–	–	–	–	–	–	–	–	–	–	–
Cc1ccnc2c1NC(=O)c1cccnc1N2C1CC1 [NEVIRAPINE]	> 15000	151	> 15000	–	–	–	–	–	168	–	–	–	–	–	–	–	–	–	–	–	–
